Test results: a melting point compilation (Tetko et al.)

SMILES | melting point [°C]
C/C(CCc1oc2c(Br)cc(Br)cc2c1-c1ccc(C)o1)=N/O | 157 to 158
CC12CC(=O)C3C(CCC4=CC(=O)CCC43C)C1CCC2=O (configuration not stated) | 222
CCCCCCCCCCCCc1ccc(N)cc1 | 40.5
Clc1cccc2ccccc12 | -2.5
CN(C)c1ccc(C=C2SC(=S)NC2=O)cc1 | 285 to 288
CC(=O)c1cnc2ccccc2n1 | 78
O=C(Nc1ccc(Cl)cc1)c1cccnc1Cl | 148 to 149
Nc1ccc2[nH]c(C(F)(F)F)nc2c1 | 188
OC[C@H]1O[C@@H](Oc2ccccc2)[C@H](O)[C@@H](O)[C@@H]1O | 177
CSc1sc(C(=O)O)c(-c2cccc(C(F)(F)F)c2)c1C#N | 232 to 234
CC(C)OC(=O)C1(S(=O)(=O)c2ccc([N+](=O)[O-])cc2)CCC1 | 65.5
Cc1ccc([N+](=O)[O-])c(C)n1 | 32 to 38
CC(O)CN(CCO)CCO (configuration not stated) | 31.5 to 36
CN1CCN(c2ccc(C=O)cc2)CC1 | 57 to 60
Cc1ccc(S(=O)(=O)OCC2Cc3ccccc3O2)cc1 (configuration not stated) | 72 to 73
O=C1Nc2c(C(=O)O)cccc2C1=O | 268 to 275
Cc1ccc(C(=O)O)c(C)c1 | 125
C=C/C=C(C)/C=N/Nc1ccc([N+](=O)[O-])cc1[N+](=O)[O-] | 171
Cc1cccc(F)c1 | -87
O=C(Cl)c1cnn(-c2ccccc2)c1C(F)(F)F | 40 to 41
CNCc1ccc(N2CCN(C(=O)OC(C)(C)C)CC2)cc1 | 60 to 62
Oc1ccc(Sc2ccc(O)cc2O)c(O)c1 | 173 to 177

SMILES | melting point [°C]
Sc1nc(-c2ccccc2)cs1 | 174
COc1ccc(C(=O)O)c(OC)c1 | 109
Nc1ccc2oc3c(c2c1)CCCC3 | 73 to 75
c1ccc(C2(c3ccccc3)CC2C2=NCCN2)cc1 (configuration not stated) | 104
N#Cc1cn(C2CC2)c(=O)[nH]c1=O | 254 to 258
C1CCC2OCCOCCOC3CCCCC3OCCOCCOC2C1 (configuration not stated) | 66 to 70
O=S1(=O)CC=C(Cl)C1 | 90 to 92
CSc1ccccc1C(=O)O | 170 to 173
Oc1cc(C(F)(F)F)nc2ccc(C(F)(F)F)cc12 | 274 to 277
CCCCCF | -120
CC(=O)CO | -17
N=C(N)c1ccc(N)cc1 | 182
BrC(Br)(Br)c1ccc2ccccc2n1 | 128
N#Cc1cc(Cl)ccc1[N+](=O)[O-] | 89 to 94
N#CC(c1ccc(Sc2ccccc2)nn1)c1c(Cl)cccc1Cl (configuration not stated) | 190
CCCCCCCCCC[C@H](O)CO | 69 to 72
COc1cc2c(c3oc(=O)c4c(c13)CCOC4=O)C1CCOC1O2 (configuration not stated) | 237 to 240
O=[N+]([O-])c1ccc2c(c1)c(CO)cn2Cc1ccccc1 | 104 to 106
NS(=O)(=O)c1ccccc1[N+](=O)[O-] | 191
CC(=O)C(C(=O)c1ccccc1)c1cc(Cl)c([N+](=O)[O-])cc1[N+](=O)[O-] (configuration not stated) | 131
C=Nc1cnn(-c2ncnc3c2cnn3C)c1C=COCC | 155
Fc1ccc(-n2cc[nH]c2=S)cc1 | 207 to 209

SMILES | melting point [°C]
CCCCCCc1ccc2c(c1)CCC2 | -34
COC(=O)c1ccccc1C(=O)c1cc(C)c(O)c(C)c1 | 155 to 157
COC(=O)[C@H](CSCc1ccccc1)NC(C)=O | 67 to 73
Cc1nc(-c2ccccc2)sc1Br | 60
COC(=O)[C@H](CC(=O)O)Cc1ccc2ccccc2c1 | 64.7
CCCCCCCCCCCC(=O)Cl | -17
NCCCP(=O)(O)O | 290 to 294
CC12CCC(c3cn(-c4ccccc4)nc31)C2(C)C (configuration not stated) | 125
COc1cc2c(c(Oc3c(OC)cc4c(c3O)C(CC(C)C)N(C)CC4)c1O)C(CC(C)C)N(C)CC2 (configuration not stated) | 164
CN(C)c1ccc(C(O)C2C(=O)N(c3ccccc3)N=C2C(F)(F)F)cc1 (configuration not stated) | 171
Oc1ccnc2ccc(C(F)(F)F)cc12 | 265 to 268
CC(C)=NOCCOC(=O)C(C)Oc1ccc(Oc2cnc3cc(Cl)ccc3n2)cc1 (configuration not stated) | 66.3
CCOC(=O)c1cnc2c(c(C)nn2C)c1Oc1ccc(F)cc1 | 110 to 112
COC(=O)c1ccc(CS(=O)(=O)Cl)cc1 | 116 to 117
O=[N+]([O-])c1cc(F)c(F)cc1F | -11
N#Cc1ccc(F)c(Br)c1 | 56
Cc1cc(S(=O)(=O)Cl)ccc1Br | 59
O=S(=O)(Cl)c1ccc2c(c1)CCO2 | 84 to 85
N#C/C(=C/c1ccccc1)c1ccc(Cl)cc1 | 116
OCCCCCCCCCCCBr | 46
COP(=O)(CN1C(=O)c2ccccc2C1=O)OC | 118
O=C(c1ccccc1)c1ccc(C(F)(F)F)c(F)c1 | 66

SMILES | melting point [°C]
COc1nn(-c2ccccc2)cc1/C=C/C=O | 131 to 133
NC(=O)C(F)(F)Cl | 82
Fc1ccc(OCC2CO2)cc1 (configuration not stated) | 19.5
CC(c1ccccc1)C(C)(C)O (configuration not stated) | 46
CC(=O)c1ccc(C=O)s1 | 105 to 106
Cc1nc(/C(C#N)=N/Nc2ccccc2Cl)sc1/N=N/c1ccc(Br)cc1 | 241
CSc1ccc(C(F)(F)F)cc1[N+](=O)[O-] | 94 to 96
O=C(O)c1ccc(Cl)cc1O | 210
OCc1ccccc1Cn1cncn1 | 98 to 100
COC(=O)C(Cl)C(Cl)c1cccc(C(Cl)C(Cl)C(=O)OC)c1 (configuration not stated) | 131
CCCCCC(=O)c1ccccc1 | 27
Cc1ccccc1CC(NC(=O)OC(C)(C)C)C(=O)O (racemic) | 125 to 129
Cc1cc(N)c(Cl)cc1F | 69 to 71
C=CCN1C(=O)C(CC(C)C)NC1=S (configuration not stated) | 210
C/C=C/C1Nn2c(nnc2-c2ccc([N+](=O)[O-])cc2)S1 (configuration not stated) | 150
COc1ccc2c3c1OC1C(O)CC=C4C(C2)N(C)CCC431 (configuration not stated) | 128
Nc1nccnn1 | 176
CC(C)(C)OC(=O)N1CCN(C(=O)OCC2c3ccccc3-c3ccccc32)C(C(=O)O)C1 (configuration not stated) | 163 to 166
FC(F)(F)c1nc2c(Cl)c(Cl)ccc2[nH]1 | 214
CCc1nc(N)nc(Cl)c1C | 138 to 140
COC(=O)c1cc2cc(N)ccc2s1 | 178 to 179
Cc1ccc(-c2nnc(-c3ccccc3)c3c(C)onc23)cc1 | 206

SMILES | melting point [°C]
CCCCCCCCCCCCC1CCCCC1 | 12.5
Cc1ccc(Cl)c(Cl)c1Cl | 43.5
O=CC(O)C(O)CO (configuration not stated) | 164
CCOc1c(NCc2ccccc2)c(=O)c1=O | 68 to 72
CC(=O)Oc1ccccc1C(=O)OCC(=O)N(C(C)C)C(C)C | 108
COc1ccc(OC)c(S(N)(=O)=O)c1 | 150 to 152
Sc1ncnc2c1cnn2-c1ccccc1 | 286 to 288
O=c1cc(-c2ccccc2)oc2ccc3ccccc3c12 | 164
Cc1nc(N)nc(O)c1Br | 244 to 246
CC12CCC3C(CCC4CC5SC5CC43C)C1CCC2O (configuration not stated) | 127
Nc1c(C=O)ccc2c1C(=O)c1ccccc1C2=O | 228 to 234
CC(=O)C1CCC2(C)C(CCC3C4CCC(O)C4(C)CCC32)C1 (configuration not stated) | 145
ClCc1noc(-c2ccccc2)n1 | 64
CC12CCC(C(COC(=O)c3ccccc3)C1=O)C2(C)C (configuration not stated) | 96
O=P(N1CC1)(N1CC1)N(N=Cc1ccccc1)c1ccccc1 | 114
CCCCCCCCCCCCCCCC(CCCC)c1ccccc1 (configuration not stated) | 30.2
c1ccc2sc(SN3CCOCC3)nc2c1 | 85
CC(=O)c1ccc(-n2ccnc2)cc1 | 116
c1ccc(C(CCN2CCCCC2)c2ccccc2)cc1 | 41
CC1CCCC(C)(C)C1 (configuration not stated) | -65.7
O=C(Nc1ccccc1)c1cccc2c(Br)cccc12 | 217
CC(=O)c1ccc2[nH]c(=O)oc2c1 | 236

SMILES | melting point [°C]
Cc1ccc(CCl)cc1[N+](=O)[O-] | 46 to 50
OC1CCSCC1 | 50 to 51
CN(C)c1ccc(C2CC(=O)CC(=O)C2)cc1 | 201 to 204
CC1(C)CCC(Cc2ccc(Cl)cc2)C1(O)Cn1cncn1 (configuration not stated) | 112
CCCCCC(=O)CC(C)=O | -18
CCN(CC)C(C)O (configuration not stated) | -70
CCCCCCCCCCCC(=O)CC | 34
N#CCON=C(C#N)c1ccccc1 | 55
COC(=O)c1ccc(CC(C#N)(Cc2ccc(C(=O)OC)cc2)c2ccc(CC(C)C)cc2)cc1 | 115
CC1=CC(=O)C=CC1=O | 69
NNC(=O)COc1ccccc1CSc1ccc(Cl)cc1 | 118 to 121
N#CC(=Cc1ccc(Cl)cc1)C(N)=O | 100
C=C(C)C1(O)C2OC(=O)C1C1(O)C3OC3C3(CO3)C1(C)C2O (configuration not stated) | 225
O=C(CCc1ccc(O)cc1)c1c(O)cc(O)cc1O | 260 to 262
N#Cc1cccc(C(N)=O)c1 | 223
CC(C)(C)OC(=O)N[C@@H](Cc1ccc(O)cc1)C(=O)O | 135 to 140
N[C@@H](Cc1ccc(OCc2ccccc2)cc1)C(=O)O | 259
N#Cc1ncc(F)cc1F | 32
Cc1cccc(N2C(=O)C3ON=C(C(=O)c4ccco4)C3C2=O)c1 (configuration not stated) | 129
Clc1ccc(C=NCCN=Cc2ccc(Cl)cc2)cc1 | 125
OCC1=CCN2CCC(O)C12 (configuration not stated) | 120
CSC(=Nc1nccs1)SC | 194 to 195
